Assay results as given in PMC2855616 (ACS Chemical Biology, 2010).

System: hexokinase from Saccharomyces cerevisiae
Test: initial rates of ADP generation monitored with 5-ATR-ParM biosensor
Assay type: biochemical
Conditions: read-out: KM^glucose; 1 mM ATP, 50 mM Tris-HCl pH 7.5, 25 mM KCl, 10 mM MgCl2, 20 °C

Km: 180 ± 9 µM
SMILES: OC[C@H]1OC(O)[C@H](O)[C@@H](O)[C@@H]1O (stereo partly drawn) [D-glucose]
